Read-outs that look alike come from different tables or passages of the source.
Columns and labels:
A375-NRAS^Q61K cells = assay: CTGlo Cell Viability Assay, A375-NRAS^Q61K (A375.11) cells, 96 hours; assay type: cell-based, human; settings: A375.11 (A375-NRAS^Q61K) cells; for Emax / CTGlo A375.11 96 hours Emax: lowest % viability achieved
In short: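 A375 cells carrying BRAF V600E and NRAS Q61K were seeded at 250 cells/well with a 10-point half-log dose series (max 10 μM final). After 96 h at 37 °C, viability was read as ATP luminescence (CellTiter-Glo), background-subtracted and normalized to DMSO (100%). GI50 from 4-parameter fit; Emax is the lowest % viability.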

BRAF V600E = target: T1, BRAF V600E (Homo sapiens, UniProt P15056+Q96SW2, V600E); assay: BRAF V600E HiBiT Degradation Assay; assay type: cell-based
T1 construct: knock-in of the HiBiT tag to the endogenous BRAF V600E locus; host or cells: A375.10 (A375 clonal line, CRISPR HiBiT knock-in at the endogenous BRAF V600E locus)
In short: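 Endogenous HiBiT knock-in on BRAF V600E in A375 cells (clone A375.10); 11-point half-log series, top 10 μM, 2, 6 or 24 h at 37° C. Lytic HiBiT luminescence, background-subtracted, normalized to DMSO; 4-parameter fit gives DC50, Emax (residual protein) and IP (inflection point).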

[1] = A375.10 cells, BRAF V600E, 2 hours, residual protein remaining, read-out: HiBiT-Degradation A375.10 BRAF 2 hours Emax
[2] = A375.10 cells, BRAF V600E, 2 hours, inflection point, read-out: HiBiT-Degradation A375.10 BRAF 2 hours IP
[3] = A375.10 cells, BRAF V600E, 2 hours, read-out: HiBiT-Degradation A375.10 BRAF 2 hours DC50
[4] = A375.10 cells, BRAF V600E, 6 hours, inflection point, read-out: HiBiT-Degradation A375.10 BRAF 6 hours IP
[5] = A375.10 cells, BRAF V600E, 6 hours, read-out: HiBiT-Degradation A375.10 BRAF 6 hours DC50
[6] = A375.10 cells, BRAF V600E, 6 hours, residual protein remaining
[7] = A375.10 cells, HiBiT, BRAF V600E, 24 hours
[8] = A375.10 cells, HiBiT, BRAF V600E, 24 hours, read-out: HiBiT-Degradation A375.10 BRAF 24 hours DC50
[9] = A375.10 cells, HiBiT, BRAF V600E, 24 hours, read-out: HiBiT-Degradation A375.10 BRAF 24 hours IP
[10] = A375.10 cells, BRAF V600E, 2 hours, residual protein remaining

T1 sequence (P15056 whole entry V600E): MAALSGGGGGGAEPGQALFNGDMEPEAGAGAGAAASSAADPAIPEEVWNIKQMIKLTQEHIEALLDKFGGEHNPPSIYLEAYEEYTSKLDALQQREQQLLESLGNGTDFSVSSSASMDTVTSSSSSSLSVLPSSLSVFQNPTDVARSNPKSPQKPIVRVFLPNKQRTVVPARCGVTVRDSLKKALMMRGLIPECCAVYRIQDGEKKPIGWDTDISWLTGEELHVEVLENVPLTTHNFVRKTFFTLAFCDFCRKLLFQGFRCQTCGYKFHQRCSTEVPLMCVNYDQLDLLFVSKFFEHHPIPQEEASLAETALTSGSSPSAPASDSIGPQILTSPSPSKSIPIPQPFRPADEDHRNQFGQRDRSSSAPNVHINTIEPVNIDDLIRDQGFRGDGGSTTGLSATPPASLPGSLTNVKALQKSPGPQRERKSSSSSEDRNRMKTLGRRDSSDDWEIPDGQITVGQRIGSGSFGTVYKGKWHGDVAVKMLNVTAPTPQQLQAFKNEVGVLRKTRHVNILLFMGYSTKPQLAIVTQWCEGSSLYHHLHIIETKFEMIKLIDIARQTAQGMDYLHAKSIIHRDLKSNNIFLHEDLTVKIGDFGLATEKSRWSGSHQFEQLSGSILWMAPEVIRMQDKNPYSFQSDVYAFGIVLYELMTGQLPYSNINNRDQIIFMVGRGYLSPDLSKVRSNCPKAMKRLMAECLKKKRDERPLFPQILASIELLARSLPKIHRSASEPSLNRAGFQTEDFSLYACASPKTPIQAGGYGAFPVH
T1 sequence (Q96SW2 whole entry): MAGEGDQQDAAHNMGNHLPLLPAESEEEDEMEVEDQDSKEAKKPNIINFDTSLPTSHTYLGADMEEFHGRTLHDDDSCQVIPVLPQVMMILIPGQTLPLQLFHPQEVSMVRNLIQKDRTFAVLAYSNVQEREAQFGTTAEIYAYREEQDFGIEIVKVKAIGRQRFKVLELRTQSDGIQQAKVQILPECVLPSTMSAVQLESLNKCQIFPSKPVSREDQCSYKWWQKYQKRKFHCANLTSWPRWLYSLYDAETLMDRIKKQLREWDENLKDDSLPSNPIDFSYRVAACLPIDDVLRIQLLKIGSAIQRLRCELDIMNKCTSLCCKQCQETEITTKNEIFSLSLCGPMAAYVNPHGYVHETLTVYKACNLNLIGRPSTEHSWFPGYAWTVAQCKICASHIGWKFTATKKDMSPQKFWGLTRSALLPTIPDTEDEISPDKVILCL
T1 sequence (Q16531 whole entry partner): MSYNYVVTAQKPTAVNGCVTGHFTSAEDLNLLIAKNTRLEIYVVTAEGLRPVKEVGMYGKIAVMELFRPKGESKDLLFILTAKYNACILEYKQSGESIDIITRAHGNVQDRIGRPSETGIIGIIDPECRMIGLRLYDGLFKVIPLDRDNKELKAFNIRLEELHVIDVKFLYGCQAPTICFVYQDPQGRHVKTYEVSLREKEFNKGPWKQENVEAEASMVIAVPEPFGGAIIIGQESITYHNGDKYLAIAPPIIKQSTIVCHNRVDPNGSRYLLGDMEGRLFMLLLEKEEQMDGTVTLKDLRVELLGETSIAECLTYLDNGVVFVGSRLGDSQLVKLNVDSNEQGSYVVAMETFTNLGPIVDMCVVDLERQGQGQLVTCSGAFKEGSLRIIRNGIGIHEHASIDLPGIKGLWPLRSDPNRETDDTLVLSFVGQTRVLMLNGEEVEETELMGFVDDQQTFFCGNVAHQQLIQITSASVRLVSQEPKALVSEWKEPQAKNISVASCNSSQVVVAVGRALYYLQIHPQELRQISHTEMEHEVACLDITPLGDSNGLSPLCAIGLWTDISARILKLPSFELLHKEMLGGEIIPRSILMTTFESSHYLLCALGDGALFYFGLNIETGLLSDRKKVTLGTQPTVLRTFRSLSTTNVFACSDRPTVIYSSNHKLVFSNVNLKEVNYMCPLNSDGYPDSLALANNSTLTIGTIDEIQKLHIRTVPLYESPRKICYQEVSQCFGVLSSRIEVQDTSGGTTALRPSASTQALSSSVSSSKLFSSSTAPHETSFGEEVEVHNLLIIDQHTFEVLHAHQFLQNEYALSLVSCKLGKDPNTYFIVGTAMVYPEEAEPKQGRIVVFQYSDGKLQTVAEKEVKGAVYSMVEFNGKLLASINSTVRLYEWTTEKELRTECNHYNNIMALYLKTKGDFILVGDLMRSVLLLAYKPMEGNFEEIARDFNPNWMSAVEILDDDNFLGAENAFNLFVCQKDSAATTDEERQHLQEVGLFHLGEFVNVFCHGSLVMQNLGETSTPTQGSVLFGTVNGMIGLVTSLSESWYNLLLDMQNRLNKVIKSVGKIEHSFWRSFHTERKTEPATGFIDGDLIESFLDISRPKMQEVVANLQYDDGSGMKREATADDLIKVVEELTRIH

Compound	GI50 (A375-NRAS^Q61K cells; Homo sapiens, 96 h) [nM]	Emax (A375-NRAS^Q61K cells; Homo sapiens, 96 h) [%]	Emax (BRAF V600E; [1]) [%]	GI50 (A375-NRAS^Q61K cells) [nM]	CTGlo A375.11 96 hours Emax (A375-NRAS^Q61K cells)	HiBiT-Degradation A375.10 BRAF 2 hours Emax (BRAF V600E)	DC50 (BRAF V600E; [2]) [nM]	DC50 (BRAF V600E; [3]) [nM]	DC50 (BRAF V600E; [8]) [nM]	DC50 (BRAF V600E; [9]) [nM]	other results
Cn1nc(N2CCC(=O)NC2=O)c2cc(F)c(N3CC4(CC(N5CCC6(CC5)CC(n5cnc7ccc(Oc8c(F)ccc(NS(=O)(=O)C9CCOCC9)c8C#N)cc7c5=O)C6)C4)C3)cc21 [Compound 263, N-[2-cyano-3-[3-[7-[2-[3-(2,4-dioxohexahydropyrimidin-1-yl)-5-fluoro-1-methyl-indazol-6-yl]-2-azaspiro[3.3]heptan-6-yl]-7-azaspiro[3.5]nonan-2-yl]-4-oxo-quinazolin-6-yl]oxy-4-fluoro-phenyl]tetrahydropyran-4-sulfonamide]	> 10000	50 to 90	< 50	–	–	–	–	–	–	–	DC50 (BRAF V600E; read-out: HiBiT-Degradation A375.10 BRAF 2 hours DC50, A375.10 cells, BRAF V600E, 2 hours): < 1000 nM; DC50 (BRAF V600E; read-out: HiBiT-Degradation A375.10 BRAF 2 hours IP, A375.10 cells, BRAF V600E, 2 hours, inflection point): < 1000 nM
CCN(C)S(=O)(=O)Nc1ccc(F)c(Oc2ccc3ncc(OCC4CCN(C5CCC(c6cc7c(cc6F)c(N6CCC(=O)NC6=O)nn7C)CC5)CC4)nc3c2)c1C#N (single isomer, unassigned) [Compound 119, 7-[2-cyano-3-[[ethyl(methyl)sulfamoyl]amino]-6-fluoro-phenoxy]-2-[[1-[4-[3-(2,4-dioxohexahydropyrimidin-1-yl)-5-fluoro-1-methyl-indazol-6-yl]cyclohexyl]-4-piperidyl]methoxy]quinoxaline]	–	–	–	1000 to 10000	** (<90% and >50%)	** (<90% and >50%)	< 1000	< 1000	–	–	–
CCN(C)S(=O)(=O)Nc1ccc(F)c(Oc2ccc3ncn([C@@H]4COC5(CCN(C6CCC(c7cc8c(cc7F)c(N7CCC(=O)NC7=O)nn8C)CC6)CC5)C4)c(=O)c3c2F)c1C#N (single isomer, unassigned) [Compound 47]	–	–	–	1000 to 10000	** (<90% and >50%)	*** (<=50%)	< 1000	< 1000	< 1000	< 1000	DC50 (BRAF V600E; [4]): < 1000 nM; DC50 (BRAF V600E; [5]): < 1000 nM; HiBiT-Degradation A375.10 BRAF 6 hours Emax (BRAF V600E; [6]): *** (<=50%); HiBiT-Degradation A375.10 BRAF 24 hours Emax (BRAF V600E; [7]): *** (<=50%)
CCN(C)S(=O)(=O)Nc1ccc(F)c(Oc2ccc3ncn(C4CC5(CCN(C6CCC(c7cc8c(cc7F)c(N7CCC(=O)NC7=O)nn8C)CC6F)CC5)C4)c(=O)c3c2)c1C#N (single isomer, unassigned) [Compound 84, 6-[2-cyano-3-[[ethyl(methyl)sulfamoyl]amino]-6-fluoro-phenoxy]-3-[7-[4-[3-(2,4-dioxohexahydropyrimidin-1-yl)-5-fluoro-1-methyl-indazol-6-yl]-2-fluoro-cyclohexyl]-7-azaspiro[3.5]nonan-2-yl]-4-oxo-quinazoline]	–	–	–	1000 to 10000	** (<90% and >50%)	*** (<=50%)	< 1000	< 1000	< 1000	< 1000	DC50 (BRAF V600E; [4]): < 1000 nM; DC50 (BRAF V600E; [5]): < 1000 nM; HiBiT-Degradation A375.10 BRAF 6 hours Emax (BRAF V600E; [6]): *** (<=50%); HiBiT-Degradation A375.10 BRAF 24 hours Emax (BRAF V600E; [7]): *** (<=50%)
CCN(C)S(=O)(=O)Nc1ccc(F)c(Oc2ccc3ncn([C@H]4CO[C@@]5(CCN(C6CCC(c7cc8c(cc7F)c(N7CCC(=O)NC7=O)nn8C)CC6)C5)C4)c(=O)c3c2)c1C#N (single isomer, unassigned) [Compound 293]	–	–	–	< 1000	** (<90% and >50%)	–	–	< 1000	–	–	HiBiT-Degradation A375.10 BRAF 2 hours Emax (BRAF V600E; [10]): *** (<=50%)
CCN(C)S(=O)(=O)Nc1ccc(F)c(Oc2ccc3ncn(C4CC5(CCN(C6CCC(c7cc8c(cc7F)c(N7CCC(=O)NC7=O)nn8C)CC6)CC5)C4)c(=O)c3c2)c1F (single isomer, unassigned) [Compound 179, 3-[7-[4-[3-(2,4-dioxohexahydropyrimidin-1-yl)-5-fluoro-1-methyl-indazol-6-yl]cyclohexyl]-7-azaspiro[3.5]nonan-2-yl]-6-[3-[[ethyl(methyl)sulfamoyl]amino]-2,6-difluoro-phenoxy]-4-oxo-quinazoline]	–	–	–	1000 to 10000	** (<90% and >50%)	** (<90% and >50%)	< 1000	< 1000	–	–	–
CCN(C)S(=O)(=O)Nc1ccc(F)c(Oc2ccc3ncn(CCC4CCN(C5CCC(c6ccc(NC7CCC(=O)NC7=O)cc6F)CC5)CC4)c(=O)c3c2)c1C#N (single isomer, unassigned) [Compound 153, 6-[2-cyano-3-[[ethyl(methyl)sulfamoyl]amino]-6-fluoro-phenoxy]-3-[2-[1-[4-[4-[(2,6-dioxo-3-piperidyl)amino]-2-fluoro-phenyl]cyclohexyl]-4-piperidyl]ethyl]-4-oxo-quinazoline]	> 10000	50 to 90	50 to 90	–	–	–	< 1000	1000 to 10000	–	–	–
CCN(C)S(=O)(=O)Nc1ccc(F)c(Oc2ccc3ncn([C@@H]4COC5(C4)CN(C4CCC(c6cc7c(cc6F)c(N6CCC(=O)NC6=O)nn7C)CC4)C5)c(=O)c3c2)c1C#N (single isomer, unassigned) [Compound 237]	–	50 to 90	< 50	> 10000	–	–	< 1000	< 1000	–	–	–
CCN(C)S(=O)(=O)Nc1ccc(F)c(Oc2ccc3ncn(C4CC5(C4)CN(CC4CN(c6cc7c(cc6F)c(N6CCC(=O)NC6=O)nn7C)C4)C5)c(=O)c3c2)c1C#N [Compound 313]	< 1000	50 to 90	50 to 90	–	–	–	< 1000	< 1000	< 1000	< 1000	Emax (BRAF V600E; A375.10 cells, HiBiT, BRAF V600E, 24 hours, read-out: HiBiT-Degradation A375.10 BRAF 24 hours Emax): < 50%
CCN(C)S(=O)(=O)Nc1ccc(F)c(Oc2ccc3ncc(CCC4CCN(C5CCC(c6cc7c(cc6F)c(N6CCC(=O)NC6=O)nn7C)CC5)CC4)nc3c2)c1C#N (single isomer, unassigned) [Compound 128, 7-[2-cyano-3-[[ethyl(methyl)sulfamoyl]amino]-6-fluoro-phenoxy]-2-[2-[1-[4-[3-(2,4-dioxohexahydropyrimidin-1-yl)-5-fluoro-1-methyl-indazol-6-yl]cyclohexyl]-4-piperidyl]ethyl]quinoxaline]	–	50 to 90	50 to 90	> 10000	–	–	< 1000	> 10000	–	–	–
CCN(C)S(=O)(=O)Nc1ccc(F)c(Oc2ccc3ncn([C@H]4COC5(CCN(C6CC(c7ccc(NC8CCC(=O)NC8=O)cc7F)C6)CC5)C4)c(=O)c3c2)c1C#N (single isomer, unassigned) [Compound 63]	–	–	–	< 1000	*** (<=50%)	–	< 1000	< 1000	< 1000	< 1000	HiBiT-Degradation A375.10 BRAF 2 hours Emax (BRAF V600E; [10]): *** (<=50%); DC50 (BRAF V600E; [4]): < 1000 nM; DC50 (BRAF V600E; [5]): < 1000 nM; HiBiT-Degradation A375.10 BRAF 6 hours Emax (BRAF V600E; [6]): *** (<=50%); HiBiT-Degradation A375.10 BRAF 24 hours Emax (BRAF V600E; [7]): *** (<=50%)
CCN(C)S(=O)(=O)Nc1ccc(F)c(Oc2ccc3ncnc(OC4CC5(C4)CN(C4CCC(c6cc7c(cc6F)c(N6CCC(=O)NC6=O)nn7C)CC4)C5)c3c2)c1C#N (single isomer, unassigned) [Compound 232, 6-[2-cyano-3-[[ethyl(methyl)sulfamoyl]amino]-6-fluoro-phenoxy]-4-[[2-[4-[3-(2,4-dioxohexahydropyrimidin-1-yl)-5-fluoro-1-methyl-indazol-6-yl]cyclohexyl]-2-azaspiro[3.3]heptan-6-yl]oxy]quinazoline]	> 10000	50 to 90	–	–	–	–	< 1000	< 1000	–	–	Emax (BRAF V600E; read-out: HiBiT-Degradation A375.10 BRAF 2 hours Emax, A375.10 cells, BRAF V600E, 2 hours, residual protein remaining): 50 to 90%
CCN(C)S(=O)(=O)Nc1ccc(F)c(Oc2ccc3ncn(C4CC5(CCN(C6CCC(c7ccc(NC8CCC(=O)NC8=O)cc7F)CC6)CC5)C4)c(=O)c3c2)c1F (single isomer, unassigned) [Compound 166, 3-[7-[4-[4-[(2,6-dioxo-3-piperidyl)amino]-2-fluoro-phenyl]cyclohexyl]-7-azaspiro[3.5]nonan-2-yl]-6-[3-[[ethyl(methyl)sulfamoyl]amino]-2,6-difluoro-phenoxy]-4-oxo-quinazoline]	1000 to 10000	–	50 to 90	–	* (>=90%)	–	< 1000	> 10000	–	–	–

Reference: patent US20260297060A1, “COMPOUNDS FOR THE DEGRADATION OF MUTANT BRAF” (C4 THERAPEUTICS, INC., priority 2023, published 2026)
